Results on 18 molecules are retold here after patent US9969752B2, “Inhibitors of HIF prolyl hydroxylase” (MERCK SHARP & DOHME CORP., priority 2014, dated 2018).

The target in one assay is T1, Human HIF-PHD2 (Homo sapiens, UniProt Q9GZT9).
T1 construct: FLAG-tagged full length PHD2 expressed in and purified from baculovirus-infected Sf9 cells; FLAG; made in house; host or cells: baculovirus-infected Sf9 cells
T1 sequence (Q9GZT9 whole entry): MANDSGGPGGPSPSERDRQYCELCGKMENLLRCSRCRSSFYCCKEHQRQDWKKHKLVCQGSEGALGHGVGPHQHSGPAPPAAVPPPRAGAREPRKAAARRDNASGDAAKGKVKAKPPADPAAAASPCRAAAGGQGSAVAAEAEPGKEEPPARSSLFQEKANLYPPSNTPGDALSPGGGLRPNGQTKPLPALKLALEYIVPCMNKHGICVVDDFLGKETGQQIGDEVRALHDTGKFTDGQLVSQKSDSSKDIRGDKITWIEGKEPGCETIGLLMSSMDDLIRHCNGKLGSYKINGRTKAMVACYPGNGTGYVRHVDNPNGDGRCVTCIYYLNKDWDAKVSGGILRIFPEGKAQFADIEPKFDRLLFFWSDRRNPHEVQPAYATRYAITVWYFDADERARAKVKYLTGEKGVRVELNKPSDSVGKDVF
Kind of assay: Inhibition of the hydroxylation of a HIF peptide by PHD2 (time resolved fluorescence, 384-well). In kind it is biochemical. The following applies: FLAG-tagged full length PHD2; 0.2 μM 2-oxoglutarate, 0.5 μM HIF-1α peptide; 45 minutes at room temperature; read-out: Human HIF-PHD2 IC50.
As for `N#Cc1ccc2c(O)c(C(=O)NCC(=O)O)c(=O)n3c2c1OCC3c1ccc(C(F)(F)F)cc1` (stereo not drawn) [Example 178, Ammonium 2-(10-cyano-7-hydroxy-5-oxo-3-(4-(trifluoromethyl)phenyl)-3,5-dihydro-2H-[1,4]oxazino[2,3,4-ij]quinoline-6-carboxamido)acetate], the IC50 amounted to 5.4 nM.

`CS(=O)(=O)c1ccc(C2COc3cccc4c(O)c(C(=O)NCC(=O)O)c(=O)n2c34)cc1` (stereo not drawn) [Example 183, Ammonium 2-(7-hydroxy-3-(4-(methylsulfonyl)phenyl)-5-oxo-3,5-dihydro-2H-[1,4]oxazino[2,3,4-ij]quinoline-6-carboxamido)acetate]: the IC50 was 15 nM. As for `O=C(O)CNC(=O)c1c(O)c2cc(-c3ccn[nH]3)cc3c2n(c1=O)C(c1ccc(C(F)(F)F)cc1)CO3` (stereo not drawn) [Example 185, 2-(7-Hydroxy-5-oxo-9-(1H-pyrazol-5-yl)-3-(4-(trifluoromethyl)phenyl)-3,5-dihydro-2H-[1,4]oxazino[2,3,4-ij]quinoline-6-carboxamido)acetic acid], the IC50 is 12 nM.

Staying with this assay, now noted: FLAG-tagged full length PHD2; 0.2 μM 2-oxoglutarate, 0.5 μM HIF-1α peptide; 45 minutes at room temperature; read-out: MS m/z (M + 1)+ and human HIF-PHD2 IC50.
Regarding `O=C(O)CNC(=O)c1c(O)c2cccc3c2n(c1=O)C(c1nccs1)CO3` (stereo not drawn) [Example 168, 2-(7-hydroxy-5-oxo-3-(thiazol-2-yl)-3,5-dihydro-2H-[1,4]oxazino[2,3,4-ij]quinoline-6-carboxamido)acetic acid], the IC50 worked out at 19 nM.

Turning to `O=C(O)CNC(=O)c1c(O)c2c(Br)ccc3c2n(c1=O)C(c1ccc(C(F)(F)F)cc1)CO3` (stereo not drawn) [Example 169, 2-(8-bromo-7-hydroxy-5-oxo-3-(4-(trifluoromethyl)phenyl)-3,5-dihydro-2H-[1,4]oxazino[2,3,4-ij]quinoline-6-carboxamido)acetic acid], the IC50 is 16 nM. As to `O=C(O)CNC(=O)c1c(O)c2ccc(Br)c3c2n(c1=O)C(c1cscn1)CO3` (stereo not drawn) [Example 170, 2-(10-bromo-7-hydroxy-5-oxo-3-(thiazol-4-yl)-3,5-dihydro-2H-[1,4]oxazino[2,3,4-ij]quinoline-6-carboxamido)acetic acid], the IC50 was found to be 5 nM. As for `O=C(O)CNC(=O)c1c(O)c2cccc3c2n(c1=O)C(c1cnc(C(F)(F)F)s1)CO3` (stereo not drawn) [Example 171, 2-(7-hydroxy-5-oxo-3-(2-(trifluoromethyl)thiazol-5-yl)-3,5-dihydro-2H-[1,4]oxazino[2,3,4-ij]quinoline-6-carboxamido)acetic acid], the IC50 is 5.4 nM. In the case of `O=C(O)CNC(=O)c1c(O)c2c(F)ccc3c2n(c1=O)C(c1cncs1)CO3` (stereo not drawn) [Example 172, 2-(8-fluoro-7-hydroxy-5-oxo-3-(thiazol-5-yl)-3,5-dihydro-2H-[1,4]oxazino[2,3,4-ij]quinoline-6-carboxamido)acetic acid], the IC50 was 7.3 nM. Same read-out and setting: the value for `O=C(O)CNC(=O)c1c(O)c2cccc3c2n(c1=O)C(c1cnco1)CO3` (stereo not drawn) [Example 173, 2-(7-hydroxy-3-(oxazol-5-yl)-5-oxo-3,5-dihydro-2H-[1,4]oxazino[2,3,4-ij]quinoline-6-carboxamido)acetic acid] was 14 nM; that for `O=C(O)CNC(=O)c1c(O)c2ccc(F)c3c2n(c1=O)C(c1cncs1)CO3` (stereo not drawn) [Example 174, 2-(10-fluoro-7-hydroxy-5-oxo-3-(thiazol-5-yl)-3,5-dihydro-2H-[1,4]oxazino[2,3,4-ij]quinoline-6-carboxamido)acetic acid] was 3.8 nM. On the same count and under the same terms, the value for `O=C(O)CNC(=O)c1c(O)c2c(F)cc(F)c3c2n(c1=O)C(c1cncs1)CO3` (stereo not drawn) [Example 175, 2-(8,10-difluoro-7-hydroxy-5-oxo-3-(thiazol-5-yl)-3,5-dihydro-2H-[1,4]oxazino[2,3,4-ij]quinoline-6-carboxamido)acetic acid] was 2.8 nM; that for `O=C(O)CNC(=O)c1c(O)c2c(Br)ccc3c2n(c1=O)C(c1cncs1)CO3` (stereo not drawn) [Example 176, 2-(8-bromo-7-hydroxy-5-oxo-3-(thiazol-5-yl)-3,5-dihydro-2H-[1,4]oxazino[2,3,4-ij]quinoline-6-carboxamido)acetic acid] was 7.7 nM. On the same count and under the same terms, the value for `O=C(O)CNC(=O)c1c(O)c2ccc(Br)c3c2n(c1=O)C(c1cncs1)CO3` (stereo not drawn) [Example 177, 2-(10-bromo-7-hydroxy-5-oxo-3-(thiazol-5-yl)-3,5-dihydro-2H-[1,4]oxazino[2,3,4-ij]quinoline-6-carboxamido)acetic acid] was 5.4 nM. As to `N#Cc1cc2c3c(c1)c(O)c(C(=O)NCC(=O)O)c(=O)n3C(c1ccc(C(F)(F)F)cc1)CO2` (stereo not drawn) [Example 179, ammonium 2-(9-cyano-7-hydroxy-5-oxo-3-(4-(trifluoromethyl)phenyl)-3,5-dihydro-2H-[1,4]oxazino[2,3,4-ij]quinoline-6-carboxamido)acetate], the IC50 came to 4.6 nM.

As for `N#Cc1ccc2c3c1c(O)c(C(=O)NCC(=O)O)c(=O)n3C(c1ccc(C(F)(F)F)cc1)CO2` (stereo not drawn) [Example 180, ammonium 2-(8-cyano-7-hydroxy-5-oxo-3-(4-(trifluoromethyl)phenyl)-3,5-dihydro-2H-[1,4]oxazino[2,3,4-ij]quinoline-6-carboxamido)acetate], the IC50 stood at 2.9 nM. Still for that read-out and setting: the value for `N#Cc1ccc(C2COc3cccc4c(O)c(C(=O)NCC(=O)O)c(=O)n2c34)cc1` (stereo not drawn) [Example 181, ammonium 2-(3-(4-cyanophenyl)-7-hydroxy-5-oxo-3,5-dihydro-2H-[1,4]oxazino[2,3,4-ij]quinoline-6-carboxamido)acetate] was 10 nM. Still for that read-out and setting: the value for `N#Cc1ccc2c(O)c(C(=O)NCC(=O)O)c(=O)n3c2c1OCC3c1cncs1` (stereo not drawn) [Example 182, ammonium 2-(10-cyano-7-hydroxy-5-oxo-3-(thiazol-5-yl)-3,5-dihydro-2H-[1,4]oxazino[2,3,4-ij]quinoline-6-carboxamido)acetate] was 1.4 nM. On the same count and under the same terms, the value for `CS(=O)(=O)c1cc2c3c(c1)c(O)c(C(=O)NCC(=O)O)c(=O)n3C(c1ccc(C(F)(F)F)cc1)CO2` (stereo not drawn) [Example 184, ammonium 2-(7-hydroxy-9-(methylsulfonyl)-5-oxo-3-(4-(trifluoromethyl)phenyl)-3,5-dihydro-2H-[1,4]oxazino[2,3,4-ij]quinoline-6-carboxamido)acetate] was 19 nM.
